Laboratory results published in the supplement of paper PMC10307832.

Legend:
Experiment in all cases: relative viability (nuclei count vs DMSO), 5 days (fraction); higher = more cells survive
Staurosporine = compound: CN[C@@H]1C[C@H]2O[C@@](C)([C@@H]1OC)n1c3ccccc3c3c4c(c5c6ccccc6n2c5c31)C(=O)NC4 [Staurosporine]
Procedure, shortened: (§1)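 Viability was defined as treated-well nuclei divided by vehicle-well nuclei, with the median taken over replicate plates. Cells from lung cancer lines sat overnight at 37 °C in 1536-well plates, received five √10-spaced library-drug doses by pinning on vehicle-anchored plates, and grew 5 days without medium change before one-step fixation, permeabilisation and Hoechst staining, 4× imaging and MetaXpress nuclear counts. Only plates with control CV under 25% and at least one doubling were kept.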

5-Fluorouracil = compound: O=c1[nH]cc(F)c(=O)[nH]1 [5-Fluorouracil]
Procedure, shortened: as §1

[1] = compound: CN[C@@H]1C[C@H]2O[C@@](C)([C@@H]1OC)n1c3ccccc3c3c4c(c5c6ccccc6n2c5c31)C(=O)NC4 [Staurosporine] + N=C(N)NC(=N)NCCc1ccccc1 [Phenformin] (partner 250 µM)
Procedure, shortened: (§2)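 Cells from lung cancer lines were seeded into 1536-well plates and, one day later, dosed by pin tool. Treatments were either a single drug or a fixed dose of an anchor drug with five library-drug doses (not always all listed) in √10 steps. After 5 days, nuclei were stained in a one-step fixation (final 0.05% Triton X-100, 1% formaldehyde, 1 ug/ml Hoechst) and counted on 4× images, and relative viability is the treated-to-vehicle nuclei ratio, as the median of duplicate plates.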

[2] = compound: O=c1[nH]cc(F)c(=O)[nH]1 [5-Fluorouracil] + CC(=O)Nc1cccc(-n2c(=O)n(C3CC3)c(=O)c3c(Nc4ccc(I)cc4F)n(C)c(=O)c(C)c32)c1 [Trametinib] (partner 0.02 µM)
Procedure, shortened: as §2

[3] = compound: O=c1[nH]cc(F)c(=O)[nH]1 [5-Fluorouracil] + CC(=O)c1c(C)c2cnc(Nc3ccc(N4CCNCC4)cn3)nc2n(C2CCCC2)c1=O [Palbociclib] (partner 0.5 µM)
Procedure, shortened: as §2

UMC-11
relative viability (Staurosporine; 0.005 µM): 0.977
relative viability (Staurosporine; 0.01581 µM): 0.328
relative viability (Staurosporine; 0.05 µM): 0.295
relative viability (Staurosporine; 0.1581 µM): 0.123
relative viability (Staurosporine; 0.5 µM): 0.0871
relative viability (5-Fluorouracil; 0.02 µM): 0.952
relative viability (5-Fluorouracil; 0.2 µM): 0.783
relative viability (5-Fluorouracil; 0.6325 µM): 0.519
relative viability ([1]; first compound 0.005 µM): 0.305
relative viability ([1]; first compound 0.01581 µM): 0.168
relative viability ([1]; first compound 0.05 µM): 0.135
relative viability ([1]; first compound 0.1581 µM): 0.0915
relative viability ([1]; first compound 0.5 µM): 0.13
relative viability ([2]; first compound 0.02 µM): 0.711
relative viability ([2]; first compound 0.2 µM): 0.673
relative viability ([2]; first compound 0.6325 µM): 0.448
relative viability ([3]; first compound 0.02 µM): 0.344
relative viability ([3]; first compound 0.2 µM): 0.364
relative viability ([3]; first compound 0.6325 µM): 0.309
